From US8008093B2, “Inhibition of Hsp27 phosphorylation for the treatment of blistering disorders” (The University of North Carolina at Chapel Hill, priority 2004, dated 2011)
Entries after “also recorded” stand apart in the source; their conditions may differ.

Experiments:
[1] = tested on: HSP27; experiment: PV IgG induced HSP27 phosphorylation in keratinocytes, immunoblot; details: preincubated 60 mins at 37° C. with inhibitor, then 25 μM PV IgG 30 mins
Description: Cells were preincubated for 60 minutes at 37° C. with the p38MAPK inhibitors SB202190 or SB203580, the protein kinase C inhibitors Calphostin C or H-7, or the phospholipase C inhibitor U-73122. PV IgG (25 μM) was then added and the cells were incubated for 30 mins at 37° C., and harvested in IEF lysis buffer. Extracts were separated on 10% SDS-PAGE gels followed by immunoblotting with anti-HSP27 and anti-phosphoHSP27 antibodies.
For inhibition studies, keratinocytes were preincubated for 60 mins at 37° C. with the p38MAPK inhibitors SB202190 (100 μM) or H-7 (10 μM), or the phospholipase C inhibitor U-73122 (4 μM), after which PV IgG was added to a final concentration of 25 μM, the cells incubated for 30 mins at 37° C., and harvested in IEF lysis buffer.

[2] = tested on: keratinocytes; experiment: Keratin and actin reorganization in keratinocytes, confocal microscopy; assay type: cell-based, human; details: 25 μM PV IgG 6 hrs at 37° C.; SB202190 100 μM preincubated 60 mins
Description: FIGS. 5A-5C are data showing that PV IgG induced cytoskeletal reorganization can be prevented by inhibiting p38MAPK. […] Cells were stained with the indicated antibodies or fluorescein-phalloidin and analyzed by confocal microscopy.
At 37° C. Cells were fixed and stained with flourescein conjugated phalloidin (Molecular Probes, Eugene, Oreg., United States of America), pancytokeratin antibodies (clone AE1/AE3, Zymed, San Francisco, Calif., United States of America), or goat anti-human E-cadherin antibodies (R & D Systems, mc, Minneapolis, Minn., United States of America) as previously described (Hu et al., (2001) Experimental Nephrology 9, 156-164), followed by Cy2 and Cy3 conjugated secondary antibodies (Jackson Laboratories, West Grove, Pa., United States of America). Images were analyzed using a Leica SP2 AOBS confocal microscope (Leica, Bannockburn, Ill., United States of America) with an excitation wavelength of 488 nm and capture at 500-550 nm or an excitation wavelength of 561 nm and capture at 590-650 nm using a 63×objective with NA 1.4. Double labeled samples were checked for bleed though by turning off the longer wavelength laser and assaying for the absence of image. For 3 dimensional image reconstructions, serial sections were scanned at 0.244 μm and rendered using the program Volocity Version 3 (Improvision, Lexington, Mass., United States of America).

[3] = tested on: neonatal C57BL/6J mice; experiment: Passive transfer PV mouse model, blister formation; assay type: in vivo
Excerpt: The passive transfer PV mouse model developed by Anhalt and Diaz (Anhalt, et al. (1992) New England Journal of Medicine 306, 1189-1196) was used to test the hypothesis that p38MAPK inhibitors can block blister formation in vivo. In this model, the IgG fraction from patients and control non-affected normal individuals was purified and passively transferred into neonatal mice (Anhalt, et al. (1992) New England Journal of Medicine 306, 1189-1196; Rock, et al. (1990) J of Clinical Investigation 85, 296-299).
For in vivo inhibitor studies, the mice were injected intradermally with PV and normal IgG (1.0 or 1.5 mg/gram body weight) as disclosed in Mascaro et al. (Clin Immunology & Immunopathology 85, 90-96 (1997)). The P38 MAPK inhibitors were administered intradermally in two doses. In the first dose, 6.25 μg SB202190 was administered two hours prior to intradermal injection of IgG. In the second dose, 6.25 μg SB202190 was mixed with PV or control IgG and injected intradermally. Each animal received a total inhibitor dose of 12.5 μg.

[4] = tested on: p38MAPK; experiment: p38MAPK phosphorylation in mouse skin extracts, immunoblot; assay type: in vivo; details: PV IgG 1.0 mg IgG/g intradermally; SB202190 6.25 μg twice; skin biopsies after 18 hours
Description: FIG. 7A is an immunoblot showing LDH control, PV IgG, and PV IgG+SB202190 first equally loaded on and separated by SDS-PAGE, transferred to PVDF, and immunoblotted with antibodies to p38MAPK, phospho-p38MAPK or lactate dehydrogenase (LDH) as a loading control. Blots were developed by ECL reaction (Amersham, Piscataway, N.J., United States of America).
FIG. 7B is a bar graph illustrating signal intensity from the ECL reaction for each band from the immunoblot of FIG. 7A, quantified with a GeneGnome™ scanner (Syngene Bio Imaging, Frederick, Md., United States of America) using GeneSnap™ software (n=3, S.D. shown by error bars).

[5] = tested on: HSP25; experiment: HSP25 phosphorylation in mouse skin extracts, 2D immunoblot; assay type: in vivo; details: PV IgG 1.0 mg IgG/g intradermally; SB202190 6.25 μg twice; skin biopsies after 18 hours
Description: Skin biopsies were obtained after 18 hours of treatment and extracted in IEF lysis buffer.
FIG. 7C is an autoradiogram of an immunoblot showing cell extracts (30 μg) prepared and separated in the first dimension using 7 cm pH 4-7, non-linear IPGphor strips (Amersham Biosciences, Inc.) and in the second dimension by 10% SDS-PAGE followed by immunoblotting with antibodies to murine HSP25 using methods known in the art (see Berkowitz et al. (2005) J Biol Chem 280, 23778-23784). […] P values were calculated using student's T-test.

[6] = tested on: epidermal keratinocyte cell membranes; experiment: Direct immunofluorescence of perilesional skin for bound PV IgG; details: direct immunofluorescence of mouse skin, PV IgG+SB202190 vs PV IgG
Description: Perilesional skin biopsies were examined by direct immunofluorescence for the presence of PV IgG bound to the epidermal epithelium.

[7] = PV IgG intradermally, SB202190 two doses of 6.25 μg intradermally, after 18 hours
[8] = histology, PV IgG intradermally, SB202190 two doses of 6.25 μg intradermally, after 18 hours

CC1CNCCN1S(=O)(=O)c1cccc2cnccc12 (stereo not drawn) [H-7]
inhibition of PV IgG induced HSP27 phosphorylation [1]: No notable inhibition

Calphostin C
inhibition of PV IgG induced HSP27 phosphorylation [1]: No notable inhibition

Oc1ccc(-c2nc(-c3ccc(F)cc3)c(-c3ccncc3)[nH]2)cc1 [SB202190, 4-(4-Fluorophenyl)-2-(4-hydroxyphenyl)-5-(4-pyridyl)1H-imidazole]
actin reorganization (phalloidin staining) [2]: similarly prevented; also recorded: inhibited | keratin filament retraction [2]: prevented | suprabasal acantholysis leading to blister formation ([3]; PV IgG 1 mg IgG/g body weight, skin biopsies, hematoxylin and eosin): blocked | Nikolsky's sign ([3]; PV IgG 1.5 mg IgG/gram body weight intradermally, examined 18 hours later): negative Nikolsky's sign | blister development, clinically and histologically ([3]; PV IgG 1.0 or 1.5 mg/gram body weight intradermally, SB202190 total 12.5 μg, after 18 hours): failed to develop blisters | Numbers of Mice with Nikolsky Sign: Nikolsky Negative [3, 7]: 11 | Numbers of Mice with Nikolsky Sign: Nikolsky Positive [3, 7]: 1 | Numbers of Mice with Suprabasilar Acantholysis: Blisters Present [3, 8]: 1 | Numbers of Mice with Suprabasilar Acantholysis: No Blisters [3, 8]: 11 | p38MAPK phosphorylation in skin extracts [4]: prevented; also recorded: blocked | phosphorylation of the most negatively charged HSP25 isoform in skin extracts [5]: inhibited; also recorded: blocked | effect on binding of PV autoantibodies to epidermal keratinocyte cell surface [6]: did not prevent or alter the binding; also recorded: does not prevent binding

COc1ccc2c(c1)CC[C@@H]1[C@@H]2CC[C@]2(C)[C@@H](NCCCCCCN3C(=O)C=CC3=O)CC[C@@H]12 [U-73122]
inhibition of PV IgG induced HSP27 phosphorylation [1]: No notable inhibition
